Test results: patent US11590139B2, “Substituted aminopurine compounds, compositions thereof, and methods of treatment therewith” (Signal Pharmaceuticals, LLC, priority 2014, dated 2023)

system: Lox-IMVI melanoma cell line; assay: Lox-IMVI anti-proliferative assay (growth inhibition, Cell Titer-Glo); format: cell-based, human; settings: Homo sapiens; IC50 activity level in the cell-based Lox-IMVI anti-proliferative assay; read-out: Activity
Summary of the method: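 IC50 values reflect the concentration giving 50% of DMSO-control luminescence after 72 h of treatment, fitted with a four-parameter logistic model. Cells were cultured in RPMI + 10% FBS with compound from 0.5 nM to 10 μM.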

| IC50 | Compound |
| --- | --- |
| > 1000 nM | C[C@@H]1CC[C@@H](Nc2ncc3nc(Nc4c(F)cccc4F)n([C@H]4CC[C@@H](C(N)=O)CC4)c3n2)C[C@H]1O [Example 343, (1S,4s)-4-(8-(2,6-difluorophenylamino)-2-((1R,3R,4R)-3-hydroxy-4-methylcyclohexylamino)-9H-purin-9-yl)cyclohexanecarboxamide] |
| > 1000 nM | NC(=O)[C@H]1CC[C@@H](n2c(Nc3c(F)cc(Cl)cc3F)nc3cnc(N[C@H]4CCCOC4)nc32)CC1 [Example 203, (1R,4s)-4-(8-(4-chloro-2,6-difluorophenylamino)-2-((S)-tetrahydro-2H-pyran-3-ylamino)-9H-purin-9-yl)cyclohexanecarboxamide] |
| > 1000 nM | NC(=O)[C@H]1CC[C@@H](n2c(Nc3cccc(Cl)c3F)nc3cnc(N[C@@H]4CCC[C@H]4O)nc32)CC1 [Example 263, (1S,4s)-4-(8-(3-chloro-2-fluorophenylamino)-2-((1R,2R)-2-hydroxycyclopentylamino)-9H-purin-9-yl)cyclohexanecarboxamide] |
| > 1000 nM | NC(=O)[C@H]1CC[C@@H](n2c(Nc3c(Cl)cccc3Cl)nc3cnc(NC4CC5(COC5)C4)nc32)CC1 [Example 174, (1s,4s)-4-(2-(2-oxaspiro[3.3]heptan-6-ylamino)-8-(2,6-dichlorophenylamino)-9H-purin-9-yl)cyclohexanecarboxamide] |
| > 1000 nM | CC(C)(C)OC(=O)N1CC[C@H](Nc2ncc3nc(Nc4c(F)cc(F)cc4F)n([C@H]4CC[C@@H](C(N)=O)CC4)c3n2)[C@H](F)C1 [Example 127, (3R,4S)-tert-butyl 4-(9-((1s,4R)-4-carbamoylcyclohexyl)-8-(2,4,6-trifluorophenylamino)-9H-purin-2-ylamino)-3-fluoropiperidine-1-carboxylate] |
| 500 to 1000 nM | NC(=O)[C@H]1CC[C@@H](n2c(Nc3c(F)cccc3Cl)nc3cnc(NC4CCC(F)(F)CC4)nc32)CC1 [Example 235, (1s,4s)-4-(8-(2-chloro-6-fluorophenylamino)-2-(4,4-difluorocyclohexylamino)-9H-purin-9-yl)cyclohexanecarboxamide] |

same assay, conditions: Homo sapiens; Lox-IMVI anti-proliferative assay, IC50 activity level; read-out: Activity

| IC50 | Compound |
| --- | --- |
| 250 to 500 nM | C[C@@H]1COCC[C@@H]1Nc1ncc2nc(Nc3c(Cl)cc(Cl)cc3Cl)n([C@H]3CC[C@@H](C(N)=O)CC3)c2n1 [Example 502, (1R,4s)-4-(2-((3S,4S)-3-methyltetrahydro-2H-pyran-4-ylamino)-8-(2,4,6-trichlorophenylamino)-9H-purin-9-yl)cyclohexanecarboxamide] |
| 250 to 500 nM | N#Cc1cc(Cl)c(Nc2nc3cnc(N[C@@H]4CCOC4)nc3n2[C@H]2CC[C@@H](C(N)=O)CC2)c(Cl)c1 [Example 518, (1S,4s)-4-(8-(2,6-dichloro-4-cyanophenylamino)-2-((R)-tetrahydrofuran-3-ylamino)-9H-purin-9-yl)cyclohexanecarboxamide] |

same assay, conditions: Homo sapiens; Lox-IMVI melanoma cell line, anti-proliferative assay; read-out: Activity (IC50 activity level)

| IC50 | Compound |
| --- | --- |
| > 1000 nM | N#Cc1cc(F)c(Nc2nc3cnc(N[C@@H]4CCCN(c5ccccc5)C4)nc3n2[C@H]2CC[C@@H](C(N)=O)CC2)c(Cl)c1 [Example 750, (1S,4s)-4-(8-(2-chloro-4-cyano-6-fluorophenylamino)-2-((R)-1-phenylpiperidin-3-ylamino)-9H-purin-9-yl)cyclohexanecarboxamide] |
| > 1000 nM | CCN1CCC[C@@H](Nc2ncc3nc(Nc4c(Cl)cc(C#N)cc4Cl)n([C@H]4CC[C@@H](C(N)=O)CC4)c3n2)C1 [Example 733, (1S,4s)-4-(8-(2,6-dichloro-4-cyanophenylamino)-2-((R)-1-ethylpiperidin-3-ylamino)-9H-purin-9-yl)cyclohexanecarboxamide] |
| > 1000 nM | Cc1ccc(S(=O)(=O)N2CCC[C@@H](Nc3ncc4nc(Nc5c(F)cc(F)cc5Cl)n([C@H]5CC[C@@H](C(N)=O)CC5)c4n3)C2)cc1 [Example 787, (1S,4s)-4-(8-(2-chloro-4,6-difluorophenylamino)-2-((R)-1-tosylpiperidin-3-ylamino)-9H-purin-9-yl)cyclohexanecarboxamide] |
